{"source": "PubChem BioAssay (NCI)", "test_in_all_cases": "inhibition of tumour cell growth, NCI panel, 48 h", "key": {"NCI-H23 lung": {"tested_on": "NCI-H23 lung"}, "NCI-H460 lung": {"tested_on": "NCI-H460 lung"}, "NCI-H522 lung": {"tested_on": "NCI-H522 lung"}, "NCI/ADR-RES ovarian": {"tested_on": "NCI/ADR-RES ovarian"}, "OVCAR-3 ovarian": {"tested_on": "OVCAR-3 ovarian"}, "OVCAR-4 ovarian": {"tested_on": "OVCAR-4 ovarian"}, "OVCAR-5 ovarian": {"tested_on": "OVCAR-5 ovarian"}, "OVCAR-8 ovarian": {"tested_on": "OVCAR-8 ovarian"}, "PC-3 prostate": {"tested_on": "PC-3 prostate"}, "RPMI-8226 leukemia": {"tested_on": "RPMI-8226 leukemia"}, "RXF 393 renal": {"tested_on": "RXF 393 renal"}, "SF-268 CNS": {"tested_on": "SF-268 CNS"}, "SF-295 CNS": {"tested_on": "SF-295 CNS"}, "SF-539 CNS": {"tested_on": "SF-539 CNS"}, "SK-MEL-2 melanoma": {"tested_on": "SK-MEL-2 melanoma"}, "SK-MEL-28 melanoma": {"tested_on": "SK-MEL-28 melanoma"}, "SK-MEL-5 melanoma": {"tested_on": "SK-MEL-5 melanoma"}, "SN12C renal": {"tested_on": "SN12C renal"}, "SNB-19 CNS": {"tested_on": "SNB-19 CNS"}, "SNB-75 CNS": {"tested_on": "SNB-75 CNS"}, "SR leukemia": {"tested_on": "SR leukemia"}, "SW-620 colon": {"tested_on": "SW-620 colon"}, "T-47D breast": {"tested_on": "T-47D breast"}, "TK-10 renal": {"tested_on": "TK-10 renal"}, "U251 CNS": {"tested_on": "U251 CNS"}, "UACC-257 melanoma": {"tested_on": "UACC-257 melanoma"}, "UACC-62 melanoma": {"tested_on": "UACC-62 melanoma"}, "UO-31 renal": {"tested_on": "UO-31 renal"}}, "note": "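Five compound concentrations were applied to cells in 96-well plates for 48 hours; endpoints were derived by simple linear interpolation of the resulting dose-response curve. GI50 marks 50% less growth. TGI: total growth inhibition.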", "data": [{"smiles": "CCN1C(=O)/C(=C/c2c(Cl)[nH]c3cc(C)c(OC)cc23)c2ccccc21", "values": [{"measurement": "GI50", "setting": "NCI-H23 lung", "result": 5.37, "unit": "µM"}, {"measurement": "TGI", "setting": "NCI-H23 lung", "result": "> 100", "unit": "µM"}, {"measurement": "GI50", "setting": "NCI-H460 lung", "result": 3.31, "unit": "µM"}, {"measurement": "TGI", "setting": "NCI-H460 lung", "result": 70.2, "unit": "µM"}, {"measurement": "GI50", "setting": "NCI-H522 lung", "result": 0.823, "unit": "µM"}, {"measurement": "TGI", "setting": "NCI-H522 lung", "result": 6.58, "unit": "µM"}, {"measurement": "GI50", "setting": "NCI/ADR-RES ovarian", "result": 4.65, "unit": "µM"}, {"measurement": "TGI", "setting": "NCI/ADR-RES ovarian", "result": 65, "unit": "µM"}, {"measurement": "GI50", "setting": "OVCAR-3 ovarian", "result": 2.6, "unit": "µM"}, {"measurement": "TGI", "setting": "OVCAR-3 ovarian", "result": 8.37, "unit": "µM"}, {"measurement": "GI50", "setting": "OVCAR-4 ovarian", "result": 29.8, "unit": "µM"}, {"measurement": "TGI", "setting": "OVCAR-4 ovarian", "result": "> 100", "unit": "µM"}, {"measurement": "GI50", "setting": "OVCAR-5 ovarian", "result": 16.5, "unit": "µM"}, {"measurement": "TGI", "setting": "OVCAR-5 ovarian", "result": 85.3, "unit": "µM"}, {"measurement": "GI50", "setting": "OVCAR-8 ovarian", "result": 4.29, "unit": "µM"}, {"measurement": "TGI", "setting": "OVCAR-8 ovarian", "result": "> 100", "unit": "µM"}, {"measurement": "GI50", "setting": "PC-3 prostate", "result": 3.91, "unit": "µM"}, {"measurement": "TGI", "setting": "PC-3 prostate", "result": "> 100", "unit": "µM"}, {"measurement": "GI50", "setting": "RPMI-8226 leukemia", "result": 2.7, "unit": "µM"}, {"measurement": "TGI", "setting": "RPMI-8226 leukemia", "result": 24.1, "unit": "µM"}, {"measurement": "GI50", "setting": "RXF 393 renal", "result": 1.11, "unit": "µM"}, {"measurement": "TGI", "setting": "RXF 393 renal", "result": 34, "unit": "µM"}, {"measurement": "GI50", "setting": "SF-268 CNS", "result": 6.18, "unit": "µM"}, {"measurement": "TGI", "setting": "SF-268 CNS", "result": "> 100", "unit": "µM"}, {"measurement": "GI50", "setting": "SF-295 CNS", "result": 1.49, "unit": "µM"}, {"measurement": "TGI", "setting": "SF-295 CNS", "result": 40.6, "unit": "µM"}, {"measurement": "GI50", "setting": "SF-539 CNS", "result": 0.251, "unit": "µM"}, {"measurement": "TGI", "setting": "SF-539 CNS", "result": 0.52, "unit": "µM"}, {"measurement": "GI50", "setting": "SK-MEL-2 melanoma", "result": 0.708, "unit": "µM"}, {"measurement": "TGI", "setting": "SK-MEL-2 melanoma", "result": "> 100", "unit": "µM"}, {"measurement": "GI50", "setting": "SK-MEL-28 melanoma", "result": 49.3, "unit": "µM"}, {"measurement": "TGI", "setting": "SK-MEL-28 melanoma", "result": "> 100", "unit": "µM"}, {"measurement": "GI50", "setting": "SK-MEL-5 melanoma", "result": 2.99, "unit": "µM"}, {"measurement": "TGI", "setting": "SK-MEL-5 melanoma", "result": 8.19, "unit": "µM"}, {"measurement": "GI50", "setting": "SN12C renal", "result": 5.51, "unit": "µM"}, {"measurement": "TGI", "setting": "SN12C renal", "result": 83.1, "unit": "µM"}, {"measurement": "GI50", "setting": "SNB-19 CNS", "result": 3.43, "unit": "µM"}, {"measurement": "TGI", "setting": "SNB-19 CNS", "result": 48.2, "unit": "µM"}, {"measurement": "GI50", "setting": "SNB-75 CNS", "result": 13.8, "unit": "µM"}, {"measurement": "TGI", "setting": "SNB-75 CNS", "result": "> 100", "unit": "µM"}, {"measurement": "GI50", "setting": "SR leukemia", "result": 2.49, "unit": "µM"}, {"measurement": "TGI", "setting": "SR leukemia", "result": "> 100", "unit": "µM"}, {"measurement": "GI50", "setting": "SW-620 colon", "result": 3.67, "unit": "µM"}, {"measurement": "TGI", "setting": "SW-620 colon", "result": "> 100", "unit": "µM"}, {"measurement": "GI50", "setting": "T-47D breast", "result": 3.76, "unit": "µM"}, {"measurement": "TGI", "setting": "T-47D breast", "result": "> 100", "unit": "µM"}, {"measurement": "GI50", "setting": "TK-10 renal", "result": 16.5, "unit": "µM"}, {"measurement": "TGI", "setting": "TK-10 renal", "result": 75.6, "unit": "µM"}, {"measurement": "GI50", "setting": "U251 CNS", "result": 4.53, "unit": "µM"}, {"measurement": "TGI", "setting": "U251 CNS", "result": 20.2, "unit": "µM"}, {"measurement": "GI50", "setting": "UACC-257 melanoma", "result": 6.47, "unit": "µM"}, {"measurement": "TGI", "setting": "UACC-257 melanoma", "result": "> 100", "unit": "µM"}, {"measurement": "GI50", "setting": "UACC-62 melanoma", "result": 0.526, "unit": "µM"}, {"measurement": "TGI", "setting": "UACC-62 melanoma", "result": 23.7, "unit": "µM"}, {"measurement": "GI50", "setting": "UO-31 renal", "result": 2.87, "unit": "µM"}, {"measurement": "TGI", "setting": "UO-31 renal", "result": "> 100", "unit": "µM"}]}]}
